Experimental data as given in ChEMBL document CHEMBL1201862, “PubChem BioAssay data set” (2004).
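Five concentrations, 48 hours, 96-well plates. Here, GI50 denotes the concentration required for 50% inhibition of growth.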 The source made the active and inactive calls. No stated cut-off is given here; in the data, active = GI50 up to about 1.1 µM and inactive = higher.

Key:
Test in all cases: NCI tumour cell line growth inhibition, 48 h
SNB-78 = test system: SNB-78
M14 = test system: M14
RXF 393 = test system: RXF 393
SK-MEL-5 = test system: SK-MEL-5
NCI-H460 = test system: NCI-H460
SNB-19 = test system: SNB-19
SF-268 = test system: SF-268
IGROV-1 = test system: IGROV-1
DLD-1 = test system: DLD-1
UACC-62 = test system: UACC-62
KM12 = test system: KM12
SK-OV-3 = test system: SK-OV-3
786-0 = test system: 786-0
SNB-75 = test system: SNB-75
SN12C = test system: SN12C
A498 = test system: A498
U-251 = test system: U-251
EKVX = test system: EKVX

Measured: GI50

CCC(C)C(N)C(=O)NC(CC(N)=O)C(=O)NC(CC(C)C)C(=O)NC(CCCCN)C(=O)NC(C)C(=O)NC(CC(C)C)C(=O)NC(C)C(=O)NC(C)C(=O)NC(CC(C)C)C(=O)NC(C)C(=O)NC(CCCCN)C(=O)NC(CCCCN)C(=O)NC(C(=O)NC(CC(C)C)C(N)=O)C(C)CC (stereo unspecified)
inactive: SNB-78 11.3 µM | M14 2.48 µM | RXF 393 8.61 µM | SK-MEL-5 6.53 µM | NCI-H460 9.82 µM | SNB-19 14.7 µM | SF-268 6.47 µM | IGROV-1 17.8 µM | DLD-1 10.4 µM | UACC-62 6.64 µM | KM12 14.5 µM | SK-OV-3 18.7 µM | 786-0 6.56 µM | SNB-75 6.56 µM | SN12C 13.6 µM | A498 17.9 µM | U-251 16.4 µM | EKVX 8.05 µM

Cc1ccnc(NS(=O)(=O)c2ccc(NC3=CC(=O)C(=O)c4ccccc43)cc2)n1
inactive: SNB-78 > 100 µM | M14 > 100 µM | RXF 393 > 100 µM | SK-MEL-5 > 100 µM | NCI-H460 > 100 µM | SNB-19 > 100 µM | SF-268 > 100 µM | IGROV-1 > 100 µM | DLD-1 > 100 µM | UACC-62 > 100 µM | KM12 > 100 µM | SK-OV-3 > 100 µM | 786-0 > 100 µM | SNB-75 > 100 µM | SN12C > 100 µM | A498 > 100 µM | U-251 > 100 µM | EKVX > 100 µM

COC(=O)C(CC(=O)Nc1ccc(C)cc1)C(=O)C(=O)Nc1ccccc1C(C)C (stereo unspecified)
inactive: SNB-78 > 100 µM | M14 > 100 µM | RXF 393 > 100 µM | SK-MEL-5 > 100 µM | NCI-H460 > 100 µM | SNB-19 > 100 µM | SF-268 > 100 µM | IGROV-1 > 100 µM | DLD-1 > 100 µM | UACC-62 > 100 µM | KM12 > 100 µM | SK-OV-3 > 100 µM | 786-0 > 100 µM | SNB-75 > 100 µM | SN12C > 100 µM | A498 > 100 µM | U-251 > 100 µM | EKVX > 100 µM

COc1ccc(NC(=O)C(=O)C2NC(=S)NC2=O)c(OC)c1 (stereo unspecified)
inactive: SNB-78 > 100 µM | M14 > 100 µM | RXF 393 > 100 µM | NCI-H460 > 100 µM | SNB-19 > 100 µM | SF-268 > 100 µM | IGROV-1 > 100 µM | DLD-1 > 100 µM | UACC-62 > 100 µM | KM12 > 100 µM | SK-OV-3 > 100 µM | 786-0 > 100 µM | SNB-75 > 100 µM | SN12C > 100 µM | A498 > 100 µM | U-251 > 100 µM | EKVX > 100 µM

Clc1cc(Cc2cc(Cl)c(Cl)c3c2OCOC3)c2c(c1Cl)COCO2
inactive: SNB-78 45.1 µM | M14 38.4 µM | RXF 393 31.7 µM | SK-MEL-5 43.2 µM | NCI-H460 43.8 µM | SNB-19 38 µM | SF-268 > 100 µM | IGROV-1 40.6 µM | DLD-1 > 100 µM | UACC-62 49.1 µM | KM12 > 100 µM | SK-OV-3 23.3 µM | 786-0 25.1 µM | SNB-75 27.5 µM | SN12C 58.6 µM | A498 28.4 µM | U-251 29.1 µM

CCCCCCCCCCNC(=S)OCCCC
inactive: SNB-78 35.3 µM | M14 23.6 µM | RXF 393 34.9 µM | SK-MEL-5 18 µM | NCI-H460 21.9 µM | SNB-19 46.8 µM | SF-268 22.8 µM | IGROV-1 28.1 µM | DLD-1 27.2 µM | UACC-62 22.5 µM | KM12 14.7 µM | SK-OV-3 30 µM | 786-0 29.1 µM | SNB-75 36.5 µM | SN12C 19.7 µM | A498 25.6 µM | U-251 19.5 µM | EKVX 25.8 µM

CC(=O)Oc1cc(C)c2c(c1OC(C)=O)CC1(O2)[C@@H](C)CCC2[C@@]3(C)CC[C@H](OC(C)=O)C(C)(C)C3CC[C@]21C (stereo partly specified)
inactive: SNB-78 2.24 µM | M14 6.08 µM | RXF 393 1.26 µM | SK-MEL-5 3.1 µM | NCI-H460 3.45 µM | SNB-19 7.31 µM | SF-268 3.37 µM | IGROV-1 2.01 µM | DLD-1 3.42 µM | UACC-62 2.46 µM | KM12 5.13 µM | SK-OV-3 5.36 µM | 786-0 2.28 µM | SNB-75 3.57 µM | SN12C 2.98 µM | A498 7.46 µM | U-251 3.33 µM | EKVX 3.69 µM

C[Si](C)(C)OC1(C#N)C2C3CC4C2C(=O)C2C4C3C21 (stereo unspecified)
inactive: SNB-78 > 100 µM | M14 > 100 µM | RXF 393 > 100 µM | SK-MEL-5 > 100 µM | NCI-H460 > 100 µM | SNB-19 > 100 µM | SF-268 > 100 µM | IGROV-1 > 100 µM | DLD-1 > 100 µM | UACC-62 > 100 µM | KM12 > 100 µM | SK-OV-3 > 100 µM | 786-0 > 100 µM | SNB-75 > 100 µM | SN12C > 100 µM | A498 > 100 µM | U-251 > 100 µM
